Data on three molecules can be found in ChEMBL document CHEMBL1250550, “Design, synthesis, biological evaluation, and modeling of a non-carbohydrate antagonist of the myelin-associated glycoprotein” (Bioorg Med Chem, 2010).

SMILES strings stand for the structures.

The target of assay [1] is T1, Myelin-associated glycoprotein (Mus musculus) (UniProt P20917).
T1 sequence (whole entry): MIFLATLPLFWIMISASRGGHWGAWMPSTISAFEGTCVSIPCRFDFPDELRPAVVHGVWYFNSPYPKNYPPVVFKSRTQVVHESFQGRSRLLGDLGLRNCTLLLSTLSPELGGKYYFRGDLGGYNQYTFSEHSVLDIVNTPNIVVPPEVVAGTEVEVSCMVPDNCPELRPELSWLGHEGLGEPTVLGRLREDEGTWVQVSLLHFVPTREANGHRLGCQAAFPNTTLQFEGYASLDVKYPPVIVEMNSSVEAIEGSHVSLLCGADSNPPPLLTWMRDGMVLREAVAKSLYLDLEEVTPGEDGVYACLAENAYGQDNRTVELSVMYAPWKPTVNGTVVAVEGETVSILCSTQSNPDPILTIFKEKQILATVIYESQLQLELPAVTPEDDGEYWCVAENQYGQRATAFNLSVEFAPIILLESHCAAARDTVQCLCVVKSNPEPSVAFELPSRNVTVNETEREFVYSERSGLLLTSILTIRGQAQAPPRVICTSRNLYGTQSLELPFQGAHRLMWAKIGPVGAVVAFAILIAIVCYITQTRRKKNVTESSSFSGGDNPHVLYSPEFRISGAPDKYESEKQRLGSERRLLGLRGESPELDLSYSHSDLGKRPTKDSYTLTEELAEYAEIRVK
The assay is described as follows: Antagonist activity at mouse MAGd1-3Fc domain expressed in CHO-Lec1 cells by fluorescent hapten binding assay relative to (2R,4R,5S,6R)-5-acetamido-6-((1R,2R)-3-benzamido-1,2-dihydroxypropyl)-2-(benzyloxy)-4-hydroxytetrahydro-2H-pyran-2-carboxylate. The assay is classed as cell-based.

Assay [2] deals with T2, Myelin-associated glycoprotein (Mus musculus, UniProt P20917).
T2 sequence (P20917 whole entry): T1 sequence (whole entry)
In words: Binding affinity to mouse MAGd1-3Fc domain expressed in CHO-Lec1 cells by surface plasmon resonance. (Surface plasmon resonance follows binding to a sensor surface in real time, without labels.)

For `O=C(CF)N[C@H]1[C@H]([C@H](O)[C@H](O)CNC(=O)c2ccc(Cl)cc2)O[C@@](OCc2cccc(F)c2F)(C(=O)O)C[C@@H]1O`, the Ratio IC50 in assay [1] is 0.02. This molecule also yielded a Kd in assay [2] of 0.5 µM.
As for `CC(=O)N[C@H]1C[C@](OCc2ccccc2)(C(=O)O)C[C@@H](OCCNC(=O)c2ccc(Cl)cc2)[C@@H]1NC(=O)CF`, the Ratio IC50 in assay [1] was found to be 4300. Moreover, in assay [2], the Kd was greater than 800 µM.
Take `CC(=O)N[C@H]1[C@H]([C@H](O)[C@H](O)CNC(=O)c2ccccc2)O[C@@](OCc2ccccc2)(C(=O)O)C[C@@H]1O`: the Kd in assay [2] was found to be 26 µM.

As a reminder, the Kd is a measure of binding affinity in units of concentration. Read a low Kd as tighter binding.
